In patent publication US9072751B2, “Na/K-ATPase ligand” (priority 2006, dated 2015):

How the values were obtained:
[1] = system: isolated cardiac fibroblasts; assay type: cell-based, rat; conditions: for Effect on MBG stimulation of collagen synthesis (procollagen expression): MBG 10 nM 24 h, PP2 1 μmol/L, herbimycin 1 μmol/L, AG1478 250 nM, N-acetyl cysteine 2.5 mmol/L from 2 hours before
Method: (§1) Preparation of adult rat cardiac fibroblasts was performed as described previously by Brilla et al. with modifications.
Western blot analysis was performed on protein isolated from tissue homogenates, cell culture whole cell lysates, or nuclear extracts as described previously.
(§2) Representative Western blot for procollagen and quantitative densitometric data obtained in response to different doses of (a) MBG (all N=10), (b) MBG 10 nM contrasted with different doses of ouabain (0.1 to 100 nM) and digoxin (10 nM; all N=8). c, ouabain sensitive Rb uptake as a function of MBG and ouabain concentration (N=4 at each concentration for both MBG and ouabain; data expressed as fraction of control). d, relative proline incorporation in the supernatant and matrix, both will and without collagenase digestion (total). Each group (controls and different doses of MBG) contains N=7 replicants. The difference between the total and after collagenase digestion is reported as collagen. The matrix is the sample that was obtained after removing supernatant and scraping the culture dish. e, mRNA for collagen 1 in MBG-treated (10 nM; N=8) or control (N=8) fibroblasts. f, procollagen stability after cycloheximide treatment. Time 0 is 1 hour after incubation with cycloheximide (20 μg/mL). […] Least-square regression line fit to control (CTL) and MBG data. Bars on quantitative graphs represent the mean.+−.SEM. *P<0.05 and **P<0.01 vs control.
(§3) The PP2, herbimycin AG1478, and N-acetyl cysteine were administered from 2 hours before the addition of MBG and continued throughout the 24 hours of MBG incubation (total of 26 hours). Each bar represents the mean.+−.SEM of n=8 experiments. b, effects of PP2 (1 μmol/L) and N-acetyle cysteine (2.5 mmol/L) on MBG (10 nM)-stimulated proline incorporation into collagen. Again, the PP2 an N-acetyl cysteine were added 2 hours before exposure to MBG. Each bar represents the mean.+−.SEM of N=5 experiments. c, effects of MBG 10 nM on procollagen content in SYF and SYF+ cells. Representative Western blots are shown above quantitative data. SYF blots loaded with 15 μg of protein and SYF+blots loaded with 10 μg of protein. Each bar represents the mean.+−SEM of N-6 determinations In each group. **P<01.10 vs. control.
(§4) The effect of 24 hours of MBG (1 and 10 nM) on TGF-β, Smad 2/3, Smad 4, and pSmad 2/3 expression determined by Western blot. b and c, effects of 24 hours of MBG (10 nM), TGFβ(5 ng/mL), and the TGF-β receptor antagonist SB431542 ([…] on procollagen-1 expression (Western blot) and radiolabeled proline incorporation, respectively also were carried out. SB431542 was added 2 hours before exposure to either TGFβ or MBG (total of 26-hour exposure). Each bar represents the mean.+−.SEM of 6 to 8 determinations. *P<0.05, **P<0.01 vs. control.

[2] = system: isolated cardiac fibroblasts; assay: Radiolabeled proline incorporation into collagen (collagen synthesis) in cardiac fibroblasts; assay type: cell-based, rat; conditions: for Effect on MBG-stimulated proline incorporation into collagen: MBG 10 nM, PP2 1 μmol/L, N-acetyl cysteine 2.5 mmol/L added 2 hours before
Method: as §1
Collagen synthesis rates were determined by the method of Nishida et al. with modification.
(§5) To further examine the molecular basis of this cardiac fibrosis, isolated cardiac fibroblasts were subjected to increase doses of MBG (10^−10, 10^−9, and 10^−8 M). […] Using collagenase digestion, we observed that the vast majority of the proline incorporation was into collagen. Using standardized RT-PCR, we observed a doubling of mRNA for collagen-1 at 24 hours in response to 10 nM of MBG.
as §2
as §3, with “The effects of PP2 (1 μmol/L), herbimycin (1 μmol/L), AG1478 (250 nM), and N-acetyl cysteine (2.5 mmol/L) on MBG (10 nM) stimulation of procollagen expression also were found. The” for “The”
as §4

Milan hypertensive rats = conditions: cited from earlier work
[3] = cited from earlier work
fibroblast cell line = assay: Procollagen expression in immortalized fibroblast cell line (Western blot); assay type: cell-based
Source text: We next examined whether skin fibroblasts lines had similar response. This was done with dermal fibroblasts kindly provided by Dr. Bashar Kahaleh. […] The magnitude of this response is illustrated by comparison to maximal doses of TGFβ, the “classic” stimulus for fibrosis (see below). In addition, we observed that an immortalized fibroblast line responded similarly to MBG, ouabain and digoxin.
Response of dermal fibroblasts to MBG as compared with TGF beta. Note that increase in collagen expression in MBG is approximately 10 fold with 5 or 10 nM MBG.

SYF+ cells = assay: Procollagen expression in SYF+ cells; assay type: cell-based; conditions: MBG 10 nM
Source text: (§6) To examine whether cardiotronic steroids induced collagen synthesis by signaling through the Na/K-ATPase, we performed the following studies. First, we used pharmacological antagonism at several steps in the Na/K-ATPase cascade. Specifically, we used pharmacological antagonism of Src activation with PP2, nonspecific tyrosine kinase inhibition with herbimycin, inhibition of EGFR transactivation with AG1478, and nonspecific antioxidant administration with N-acetyle cysteine. […] Next we performed studies in the SYF and SYF+ cells (details available in the online supplement).
as §3, with “The effects of PP2 (1 μmol/L), herbimycin (1 μmol/L), AG1478 (250 nM), and N-acetyl cysteine (2.5 mmol/L) on MBG (10 nM) stimulation of procollagen expression also were found. The” for “The”, “SYF blots loaded with 15 μg of protein and SYF+blots loaded with 10 μg of protein. Each bar represents the mean.+−SEM of N-6 determinations In each group. **P<01.10 vs. control.” left out

SYF cells = assay: Procollagen expression in SYF cells; assay type: cell-based; conditions: MBG 10 nM
Source text: as §6
as §3, with “The effects of PP2 (1 μmol/L), herbimycin (1 μmol/L), AG1478 (250 nM), and N-acetyl cysteine (2.5 mmol/L) on MBG (10 nM) stimulation of procollagen expression also were found. The” for “The”, “SYF blots loaded with 15 μg of protein and SYF+blots loaded with 10 μg of protein. Each bar represents the mean.+−SEM of N-6 determinations In each group. **P<01.10 vs. control.” left out

Na/K-ATPase = target: T1, Na/K-ATPase (Rattus norvegicus, UniProt P06685); assay: Ouabain sensitive 86Rb uptake in cardiac fibroblasts; assay type: cell-based
T1 construct: In vitro studies were then pursued with cultured isolated cardiac fibroblasts; endogenous in cells; host or cells: primary isolated cardiac fibroblasts in culture
Method: as §5
Representative Western blot for procollagen and quantitative densitometric data obtained in response to different doses of (a) MBG (all N=10), (b) MBG 10 nM contrasted with different doses of ouabain (0.1 to 100 nM) and digoxin (10 nM; all N=8). c, ouabain sensitive Rb uptake as a function of MBG and ouabain concentration (N=4 at each concentration for both MBG and ouabain; data expressed as fraction of control). d, relative proline incorporation in the supernatant and matrix, both will and without collagenase digestion (total). Each group (controls and different doses of MBG) contains N=7 replicants. The difference between the total and after collagenase digestion is reported as collagen. […] Bars on quantitative graphs represent the mean.+−.SEM. *P<0.05 and **P<0.01 vs control.

fibroblasts = conditions: 48 hours, 15 ng/mL; cited from earlier work

## COc1cc2ncnc(Nc3cccc(Cl)c3)c2cc1OC [AG1478]
[1]
  Effect on MBG stimulation of collagen synthesis (procollagen expression): prevented MBG stimulation of collagen synthesis

## CC(=O)N[C@@H](CS)C(=O)O [N-acetyl cysteine]
[1]
  Effect on MBG stimulation of collagen synthesis (procollagen expression): prevented MBG stimulation of collagen synthesis
[2]
  Effect on MBG-stimulated proline incorporation into collagen: prevented increases in proline incorporation into collagen

## CC(C)(C)n1nc(-c2ccc(Cl)cc2)c2c(N)ncnc21 [PP2]
[1]
  Effect on MBG stimulation of collagen synthesis (procollagen expression): prevented MBG stimulation of collagen synthesis
[2]
  Effect on MBG-stimulated proline incorporation into collagen: prevented increases in proline incorporation into collagen

## C[C@]12CC[C@H](O)C[C@H]1CC[C@@H]1[C@@H]2CC[C@]2(C)[C@@](O)(c3ccoc3)CC[C@]12O [PST 2238]
Milan hypertensive rats
  Effect on hypertension and cardiac hypertrophy: ameliorates hypertension, as well as cardiac hypertrophy

## NC(=O)c1ccc(-c2nc(-c3ccc4c(c3)OCO4)c(-c3ccccn3)[nH]2)cc1 [SB431542]
[1]; 100-μmol/L
  Procollagen expression relative to baseline (Western blot): did not educe procollagen expression below baseline
[1]; SB431542 added 2 hours before
  Effect on TGF-β and MBG (10 nM) stimulation of collagen expression: completely blocked
[2]; 100-μmol/L
  Radiolabeled proline incorporation relative to control cells: did decrease radiolabeled proline incorporation below that seen with control cells
[2]; SB431542 added 2 hours before
  Effect on TGF-β and MBG (10 nM) stimulation of radiolabeled proline incorporation: completely blocked

## C[C@H]1O[C@@H](O[C@H]2[C@@H](O)C[C@H](O[C@H]3[C@@H](O)C[C@H](O[C@H]4CC[C@@]5(C)[C@H](CC[C@@H]6[C@@H]5C[C@@H](O)[C@]5(C)[C@@H](C7=CC(=O)OC7)CC[C@]65O)C4)O[C@@H]3C)O[C@@H]2C)C[C@H](O)[C@@H]1O [digoxin]
[3]; human, in vivo
  Free fraction of plasma digoxin: 70% to 80%
[3]; patients treated with digoxin
  Total digoxin levels typically maintained in patients: < 2 ng/mL
Fibroblast cell line
  Effect on fibroblast cell line expression of procollagen: Comparable effect

## CO[C@H]1[C@@H](OC)C[C@H](C)[C@@H](OC)C2=CC(=O)C=C(NC(=O)/C(C)=C/C=C\[C@H](OC)[C@@H](OC(N)=O)/C(C)=C/[C@@H]1C)C2=O [herbimycin]
[1]
  Effect on MBG stimulation of collagen synthesis (procollagen expression): prevented MBG stimulation of collagen synthesis

## C[C@@H]1O[C@@H](O[C@H]2C[C@@H](O)[C@]3(CO)[C@H]4[C@H](O)C[C@]5(C)[C@@H](C6=CC(=O)OC6)CC[C@]5(O)[C@@H]4CC[C@]3(O)C2)[C@H](O)[C@H](O)[C@H]1O [ouabain, reference compound]
SYF+ cells
  Upregulation of procollagen expression in SYF+ cells: very similar way as the primary cardiac fibroblast cultures
SYF cells
  Response of procollagen expression in SYF cells: essentially no response
Fibroblast cell line
  Effect on fibroblast cell line expression of procollagen: Comparable effect
Na/K-ATPase
  Threshold for inducing collagen expression relative to doses with detectable effects on 86Rb uptake: log units below

## TGF-β
fibroblasts
  Maximal increase in collagen production: 2 times
[1]; TGF-β 5 ng/mL and MBG 10 nM
  Synergism with MBG on procollagen expression: did not note any synergism
